Structures are written as SMILES.

Chain of PKB (P31749 whole entry): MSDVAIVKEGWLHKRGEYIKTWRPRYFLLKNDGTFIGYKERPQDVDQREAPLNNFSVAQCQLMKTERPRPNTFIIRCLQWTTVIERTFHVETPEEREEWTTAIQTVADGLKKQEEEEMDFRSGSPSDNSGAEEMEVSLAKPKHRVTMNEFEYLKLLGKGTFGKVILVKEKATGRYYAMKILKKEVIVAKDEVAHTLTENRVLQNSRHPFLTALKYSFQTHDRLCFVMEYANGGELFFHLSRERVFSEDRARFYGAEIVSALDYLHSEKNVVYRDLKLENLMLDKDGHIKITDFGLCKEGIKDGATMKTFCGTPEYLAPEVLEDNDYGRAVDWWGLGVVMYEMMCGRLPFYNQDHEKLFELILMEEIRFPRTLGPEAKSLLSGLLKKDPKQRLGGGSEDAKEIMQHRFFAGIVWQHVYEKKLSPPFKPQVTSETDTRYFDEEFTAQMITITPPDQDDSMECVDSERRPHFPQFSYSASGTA

The target of one test is T1, S6K1 (Homo sapiens, UniProt P23443, T412E).
T1 construct: His (N); made in house; host or cells: Sf9 insect cells (baculovirus, pFastBacHT A), co-infected with GST-PDK1 virus
T1 sequence (P23443 1-421 T412E): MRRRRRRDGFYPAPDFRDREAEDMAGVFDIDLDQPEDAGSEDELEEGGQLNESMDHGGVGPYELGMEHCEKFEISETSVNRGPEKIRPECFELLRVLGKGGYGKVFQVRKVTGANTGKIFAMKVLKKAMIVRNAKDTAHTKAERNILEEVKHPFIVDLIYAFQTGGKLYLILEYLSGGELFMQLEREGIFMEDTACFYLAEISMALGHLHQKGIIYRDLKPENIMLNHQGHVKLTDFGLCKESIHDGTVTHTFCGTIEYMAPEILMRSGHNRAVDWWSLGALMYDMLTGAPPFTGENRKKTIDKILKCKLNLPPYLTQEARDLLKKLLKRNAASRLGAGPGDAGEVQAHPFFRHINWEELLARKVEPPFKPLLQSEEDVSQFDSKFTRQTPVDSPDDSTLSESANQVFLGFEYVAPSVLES
Description: S6K1 kinase inhibition (S6K1ΔCT/T412E, TR-FRET). It counts as biochemical. To be noted: read-out: IC50 Range Class, inhibition of S6K1. The source says: The DNA fragment encoding S6K1ΔCT/T412E is subcloned to the baculovirus donor vector pFastBacHT A to generate a recombinant baculovirus that expresses S6K1ΔCT/T412E. Transfer vectors for S6K1ΔCT/T412E are transfected into the DH10Bac cell line (GIBCO). After selection of white colonies, they are used for viral DNA (bacmid) preparation. Sf9 cells (American Type Culture Collection) cells are then transfected with the viral DNA using Cellfectin reagent. Virus-containing media is collected from the transfected cell culture and is used for infection to increase its titer. For large-scale protein expression, Sf9 cells are co-infected with S6K1ΔCT/T412E and GST-PDK1 virus-containing media with MOI of 2.25 and 1, respectively. After 3 days, the cells expressing the recombinant enzyme are resuspended in the culture medium with a sterilized cell scraper and harvested by centrifugation. The cells are resuspended in 5 volumes of cell pellet of Extraction Buffer (50 mM MOPS pH 7.0, containing 300 mM NaCl, 0.05% Tween-20, 10 mM sodium pyrophosphate, 50 mM β-glycerophosphate, 0.2 mM cantharidic acid and 1× complete-EDTA protease inhibitor cocktail) and then disrupted with 15 strokes of a Dounce homogenizer followed by sonication on ice. The homogenate is centrifuged at 4° C. for 60 minutes at 48,000×g. The supernatant is clarified with a 5 μm filter and subjected to purification with TALON Superflow Resin (Clontech). First, 1 mL of TALON resin per 5 mL of the supernatant was equilibrated with the Extraction Buffer and resuspended in the supernatant followed by gentle agitation for 20 minutes at RT. After centrifugation at 700×g for 5 minutes, supernatant is removed. The resin is washed twice by adding 10 bed volumes of the Extraction Buffer, agitating for 10 minutes at RT, centrifugating at 700×g for 5 minutes, and discarding the supernatant. The resin is then resuspended with the same volume of the Extraction Buffer and transferred to an disposable chromatography column. The packed column is washed once with 10 bed volumes of the Extraction Buffer and additionally with the same volume of Wash Buffer (5 mM imidazole in the Extraction Buffer). Then, the His-tagged S6K1ΔCT/T412E is eluted with four bed volumes of Elution Buffer (150 mM imidazole in the Extraction Buffer).
Measure of enzyme activity: The kinase assay with purified S6K1ΔCT/T412E is performed with TR-FRET (Time-Resolved Fluorescene Resonance Energy Transfer) technology. First, ATP-dependent phosphorylation of the biotinylated substrate peptide corresponding to residues 229-242 of S6 ribosomal protein (Biot-AKRRRLSSLRASTS) is carried out for 1 hour at 37° C. in […] under humidified air. The kinase reaction mixture of the final volume of 9 μL contains 2.57 ng of purified S6K1ΔCT/T412E protein, 50 mM MOPS (pH 7.0), 0.1 mM EGTA, 0.01 mM Na3VO4, 0.05% Tween-20, 0.01% BSA, 1 mM DTT, 10 mM MgCl2, 3 μM ATP, 0.5 μM biotinylated substrate peptide, 1% of DMSO or the text compounds of the formula (I) at the required concentration in 1% DMSO. For measurement of background, 20 mM of EDTA is added to the reaction mixture. […] Phosphorylated peptide indicative of kinase activity is quantitated by exciting the sample at 330 nm and comparing donor emission at 615 nm and acceptor emission at 665 nm by 2101 EnVision HTS multilabel plate reader (Perkin Elmer). […]
(TR-FRET usually uses a lanthanide donor and a delayed reading to cut background.)
A word on the IC50: it is the concentration needed to halve the response being measured. In the case of `Cc1cc(CCN)ccc1-n1cnc2cnc3ccc(-c4ccc5[nH]ccc5c4)cc3c21` [Example 22, 2-{4-[8-(1H-indol-5-yl)-Imidazo[4,5-c]quinolin-1-yl]-3-methyl-phenyl}-ethylamine], the IC50 was at most 500 nM.
The same measure, in the same setting: for `NCCc1ccc(-n2cnc3cnc4ccc(-c5ccc(O)cc5)cc4c32)c(C(F)(F)F)c1` [Example 30, 4-{1-[4-(2-Amino-ethyl)-2-trifluoromethyl-phenyl]-1H-imidazo[4,5-c]quinolin-8-yl}-phenol] the value was at most 500 nM.
The same measure, in the same setting: for `NCCc1ccc(-n2cnc3cnc4cc(F)c(-c5ccc6[nH]ccc6c5)cc4c32)c(Cl)c1` [Example 83, 2-{3-Chloro-4-[7-fluoro-8-(1H-indol-5-yl)-imidazo[4,5-c]quinolin-1-yl]-phenyl}-ethylamine] the value was at most 500 nM.

For a further test, the target named is PKB (Homo sapiens, UniProt P31749). In words: PKB kinase inhibition (PDK1-activated GST-PKB, 33P peptide assay). The note with it: read-out: IC50 Range Class, inhibition of PKB. It counts as biochemical. Here is the method:
GST-PKB [100 ng, specific activity (SA): 0.2 nmole/mg/min.] is incubated for 30 minutes at room temperature (RT) with purified recombinant GST-PDK1 (1 ng, SA: 2 nmole/min./mg). The activation is performed as follows: 0.1 μg of GST-PDK1 (0.05 μL) and 10 μg of GST-PKB (0.45 μL) are mixed in a total volume of 0.75 μL containing 15 μM ATP, 3 mM MgCl2, 20 mM hepes (pH 7.6) for 30 minutes at RT. The reaction is subsequently stopped by adding 0.25 μL containing 30% gycerol (w/w) and 0.06 μL of 500 mM EDTA. 100-500 ng (0.01-0.05 μL) activated GST-PKB is incubated in a final volume of 30 μL with 10 μM of the RRPRTRSFS peptide, 10 mM Mg-acetate, 50 mM MOPS (PH 7.5), 1 mM DTT and 300 μg/mL BSA, 20 μM ATP (0.1 μCi γ-^33P-ATP). The reaction is carried out for 30 minutes at RT in the presence of either 1% DMSO or the text compound of the formula (I) at the required concentration in 1% DMSO. The reaction is terminated by the addition of 20 μL 125 mM EDTA. Thirty (30) μL of each sample is spotted onto P81 Whatman and the paper squares processed. See Ferrari and Thomas, Methods Enzymol, Vol. 200, pp. 159-169 (1991). IC50 values are calculated by linear regression analysis of the percentage inhibition of each compound in duplicate.
On to `NCCc1ccc(-n2cnc3cnc4cc(F)c(-c5cccs5)cc4c32)cc1` [Example 61, 2-[4-(7-Fluoro-8-thiophen-2-yl-imidazo[4,5-c]quinolin-1-yl)-phenyl]-ethylamine], for which the IC50 was at most 500 nM.
The same measure, in the same setting: for `NCCc1ccc(-n2cnc3cnc4cc(F)c(-c5ccc6[nH]ccc6c5)cc4c32)cc1` [Example 64, 2-{4-[7-Fluoro-8-(1H-indol-5-yl)-imidazo[4,5-c]quinolin-1-yl]-phenyl}-ethylamine] the value was at most 500 nM; for `NCCCc1ccc(-n2cnc3cnc4cc(F)c(-c5ccsc5)cc4c32)cc1` [Example 74, 3-[4-(7-Fluoro-8-thiophen-3-yl-imidazo[4,5-c]quinolin-1-yl)-phenyl]-propylamine], at most 500 nM.
Still for that read-out and setting: the figure for `NCCc1ccc(-n2cnc3cnc4cc(Cl)c(-c5ccsc5)cc4c32)cc1` [Example 90, 2-[4-(7-Chloro-8-thiophen-3-yl-imidazo[4,5-c]quinolin-1-yl)-phenyl]-ethylamine] is at most 500 nM.

The target in the next test is T2, RET (Homo sapiens, UniProt P07949).
T2 construct: fused on or other part: N-terminal GST tag (from vector pFB-GSTX3)
T2 sequence (P07949 1-1072 isoform P07949-2): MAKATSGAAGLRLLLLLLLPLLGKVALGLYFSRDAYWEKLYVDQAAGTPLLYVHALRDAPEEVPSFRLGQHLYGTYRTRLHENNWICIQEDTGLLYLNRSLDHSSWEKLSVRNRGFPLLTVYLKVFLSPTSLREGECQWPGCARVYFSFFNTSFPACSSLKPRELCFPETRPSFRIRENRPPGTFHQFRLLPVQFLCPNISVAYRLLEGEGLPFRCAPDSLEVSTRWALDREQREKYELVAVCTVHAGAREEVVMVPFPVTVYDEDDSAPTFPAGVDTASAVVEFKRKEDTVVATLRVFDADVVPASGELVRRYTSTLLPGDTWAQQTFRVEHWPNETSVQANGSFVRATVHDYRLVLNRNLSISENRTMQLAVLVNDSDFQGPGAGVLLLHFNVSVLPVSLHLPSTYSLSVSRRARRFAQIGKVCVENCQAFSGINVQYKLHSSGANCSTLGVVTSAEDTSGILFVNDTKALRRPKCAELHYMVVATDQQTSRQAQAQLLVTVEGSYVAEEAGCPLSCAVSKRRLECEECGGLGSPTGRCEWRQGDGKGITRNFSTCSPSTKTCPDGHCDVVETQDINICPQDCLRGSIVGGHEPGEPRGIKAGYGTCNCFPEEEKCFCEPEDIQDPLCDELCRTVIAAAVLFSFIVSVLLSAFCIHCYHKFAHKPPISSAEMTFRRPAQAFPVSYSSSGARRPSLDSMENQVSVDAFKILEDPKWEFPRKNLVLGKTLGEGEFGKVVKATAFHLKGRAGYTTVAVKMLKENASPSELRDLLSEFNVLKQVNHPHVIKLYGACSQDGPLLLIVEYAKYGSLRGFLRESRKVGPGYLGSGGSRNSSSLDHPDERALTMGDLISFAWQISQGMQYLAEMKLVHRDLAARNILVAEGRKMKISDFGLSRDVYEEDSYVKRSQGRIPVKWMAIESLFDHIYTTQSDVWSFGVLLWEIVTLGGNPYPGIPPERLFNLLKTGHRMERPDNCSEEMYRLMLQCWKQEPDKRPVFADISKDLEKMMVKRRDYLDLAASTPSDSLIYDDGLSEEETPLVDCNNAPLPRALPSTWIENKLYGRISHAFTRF
In words: RET kinase inhibition (33P filter assay, GST-wtRET or GST-RET-Men2B). Format: biochemical.
Details: not given
Here is the method:
RET kinase inhibition is determined as follows: The baculovirus donor vector pFB-GSTX3 is used to generate a recombinant baculovirus that expresses the amino acid region 658-1072 (Swiss Prot No. Q9BTB0) of the intra-cytoplasmic kinase domain of human RET-Men2A which corresponds to the wild-type kinase domain of RET (wtRET) and RET-Men2B, which differs from the wtRET by the activating mutation in the activation loop M918T. The coding sequences for the cytoplasmic domain of wtRET and RET-Men2B are amplified by PCR from the plasmids pBABEpuro RET-Men2A and pBABEpuro RET-Men2B, respectively which are received from Dr. James Fagin, College of Medicine, University of Cincinnati. The amplified DNA fragments and the pFB-GSTX3 vector are made compatible for ligation by digestion with SaII and KpnI. Ligation of these DNA fragments results in the baculovirus donor plasmid pFB-GX3-RET-Men2A and pFB-GX3-RET-Men2B, respectively.
Production of virus: Transfer vectors containing the kinase domains are transfected into the DH10Bac cell line (GIBCO) and plated on selective agar plates. Colonies without insertion of the fusion sequence into the viral genome (carried by the bacteria) are blue. Single, white colonies are picked and viral DNA (bacmid) isolated from the bacteria by standard plasmid purification procedures. Sf9 cells or Sf21 (American Type Culture Collection) cells are then transfected in 25 cm^2 flasks with the viral DNA using Cellfectin reagent.
Determination of small scale protein expression in Sf9 cells: Virus-containing media is collected from the transfected cell culture and used for Infection to increase its titer. Virus-containing media obtained after two rounds of infection is used for large-scale protein expression. For large-scale protein expression 100 cm^2 round tissue culture plates are seeded with 5×10^7 cells/plate and infected with 1 mL of virus-containing media (approximately 5 MOls). After 3 days, the cells are scraped off the plate and centrifuged at 500 rpm for 5 minutes. Cell pellets from 10-20, 100 cm^2 plates, are re-suspended in 50 mL of ice-cold lysis buffer (25 mM tris-HCl, pH 7.5, 2 mM EDTA, 1% NP-40, 1 mM DTT, 1 mM P MSF). The cells are stirred on ice for 15 minutes and then centrifuged at 5,000 rpms for 20 minutes.
Purffication of GST-tagged proteins: The centrifuged cell lysate is loaded onto a 2 mL glutathione-sepharose column (Pharmacia) and washed 3× with 10 mL of 25 mM tris-HCl, pH 7.5, 2 mM EDTA, 1 mM DTT, 200 mM NaCl. The GST-tagged proteins are then eluted by 10 applications (1 mL each) of 25 mM tris-HCl, pH 7.5, 10 mM reduced-glutathione, 100 mM NaCl, 1 mM DTT, 10% glycerol and stored at −70° C.
Measure of enzyme activity: Tyrosine protein kinase assays with either purified GST-wtRET or GST-RET-Men2B protein are carried out in a final volume of 30 μL containing 15 ng of either GST-wtRET or GST-RET-Men2B protein, 20 mM tris-HCl, pH 7.5, 1 mM MnCl2, 10 mM MgCl2, 1 mM DTT, 3 μg/mL poly(Glu, Tyr) 4:1, 1% dimethyl sulfoxide (DMSO), 2.0 μM ATP (γ-[^33P]-ATP 0.1 μCi). The activity is assayed in the presence or absence of inhibitors, by measuring the Incorporation of ^33P from [γ^33P] ATP into poly(Glu, Tyr) 4:1. The assay is carried out in 96-well plates at ambient temperature for 15 minutes under conditions described below and terminated by the addition of 20 μL of 125 mM EDTA. […] Membranes are counted after drying at ambient temperature, mounting in Packard TopCount 96-well frame, and addition of 10 μL/well of Microscint™ (Packard). […]
Take `Fc1ccccc1-n1cnc2cnc3ccc(-c4ccncc4)cc3c21` [Example 125, 1-(2-Fluoro-phenyl)-8-pyridin-4-yl-1H-imidazo[4,5-c]quinoline]: the “IC50 Range Class, inhibition of RET” value is “B/A”.

Staying with this test, now noted: read-out: IC50 Range Class, inhibition of RET.
As to `COc1ccc(OC)c(-c2ccc3ncc4ncn(-c5ccccc5F)c4c3c2)c1` [Example 119, 8-(2,5-Dimethoxy-phenyl)-1-(2-fluoro-phenyl)-1H-imidazo[4,5-c]quinoline], the IC50 is 500 to 1000 nM.
Still for that read-out and setting: the figure for `Oc1ccc(-c2ccc3ncc4ncn(-c5ccccc5F)c4c3c2)cc1` [Example 127, 4-[1-(2-Fluoro-phenyl)-1H-imidazo[4,5-c]quinolin-8-yl]-phenol] is at most 500 nM; for `CN(C)Cc1cccc(-c2ccc3ncc4ncn(-c5ccccc5F)c4c3c2)c1` [Example 129, {3-[1-(2-Fluoro-phenyl)-1H-imidazo[4,5-c]quinolin-8-yl]-benzyl}-dimethyl-amine] it is at most 500 nM.
On the same count and under the same terms, for `c1ccc(-n2cnc3cnc4ccc(-c5cccc(N6CCNCC6)c5)cc4c32)cc1` [Example 134, 1-Phenyl-8-(3-piperazin-1-yl-phenyl)-1H-imidazo[4,5-c]quinoline] the value was 500 to 1000 nM.
